For one data set, the system named is WI-38. Nature of the data set: (§1) Cytotoxicity against human WI-38 cells assessed as reduction in cell viability incubated for 72 hrs by MTT assay. It counts as toxicity, cell-based. Conditions: wi-38, 72 h. Background: Tetrazolium dyes change colour on reduction, which living cells bring about.
The next data set relates to A549. Nature of the data set: Cytotoxicity against human […] A549 cells assessed as reduction in cell viability incubated for 72 hrs by MTT assay. It counts as functional. Conditions: for CC50: Homo sapiens, A549.
In data set [1] the target is Replicase polyprotein 1ab (Severe acute respiratory syndrome coronavirus 2) (UniProt P0DTD1). Nature of the data set: Inhibition of SARS-CoV-2 PLpro at 10 uM using Arg-Leu-Arg-Gly-Gly-AMC as substrate preincubated for 5 mins followed by substrate addition measured after 6 mins by fluorescence based assay relative to control. Conditions: time 11.0 min.
Data set [2] addresses Spike glycoprotein/Angiotensin-converting enzyme 2 (Severe acute respiratory syndrome coronavirus 2) (UniProt Q9BYF1+P0DTC2). Nature of the data set: Inhibition of SARS-CoV-2 spike protein RBD- human ACE2 interaction at 10 uM pretreated with SARS-CoV-2 spike RBD for 2 hrs followed by ACE2 addition and measured after 2 hrs by […] based ELISA analysis relative to control. It counts as protein assay. Conditions: time 4.0 hrs. A general note: In an ELISA, binding on a coated surface is turned into a signal by an enzyme label.

In another data set the test system is SARS-CoV-2. Nature of the data set: Antiviral activity against SARS-CoV-2 assessed as inhibition of viral growth. It counts as functional, organism-based. Conditions: Severe acute respiratory syndrome coronavirus 2.
Data set [3] is described as follows: as §1. Particulars: WI-38 cells. It counts as toxicity, cell-based.
Data set [4] has as its target Replicase polyprotein 1ab (Severe acute respiratory syndrome coronavirus 2, UniProt P0DTD1). Nature of the data set: Inhibition of SARS-CoV-2 PLpro using Arg-Leu-Arg-Gly-Gly-AMC as substrate preincubated for 5 mins followed by substrate addition measured after 6 mins by fluorescence based assay.
Data set [5] concerns the target Spike glycoprotein/Angiotensin-converting enzyme 2 (Severe acute respiratory syndrome coronavirus 2, UniProt P0DTC2+Q9BYF1). Nature of the data set: Inhibition of SARS-CoV-2 spike protein RBD- human ACE2 interaction pretreated with SARS-CoV-2 spike RBD for 2 hrs followed by ACE2 addition and measured after 2 hrs by […] based ELISA analysis. It is filed as protein assay.

Data set [6] is described as follows: Octanol/water partition coefficient, logP of the compound by HPLC analysis. It is filed as physicochemical.

Broadly, the CC50 is the concentration giving 50% cytotoxicity. As usually defined, the inhibition is the drop in the measured response relative to a control, in per cent. As usually defined, the logP is the decadic logarithm of the partition coefficient of the neutral form, usually between octanol and water.

Sequence of Spike glycoprotein/Angiotensin-converting enzyme 2 (Q9BYF1 18-805 limits assumed, other chains not shown): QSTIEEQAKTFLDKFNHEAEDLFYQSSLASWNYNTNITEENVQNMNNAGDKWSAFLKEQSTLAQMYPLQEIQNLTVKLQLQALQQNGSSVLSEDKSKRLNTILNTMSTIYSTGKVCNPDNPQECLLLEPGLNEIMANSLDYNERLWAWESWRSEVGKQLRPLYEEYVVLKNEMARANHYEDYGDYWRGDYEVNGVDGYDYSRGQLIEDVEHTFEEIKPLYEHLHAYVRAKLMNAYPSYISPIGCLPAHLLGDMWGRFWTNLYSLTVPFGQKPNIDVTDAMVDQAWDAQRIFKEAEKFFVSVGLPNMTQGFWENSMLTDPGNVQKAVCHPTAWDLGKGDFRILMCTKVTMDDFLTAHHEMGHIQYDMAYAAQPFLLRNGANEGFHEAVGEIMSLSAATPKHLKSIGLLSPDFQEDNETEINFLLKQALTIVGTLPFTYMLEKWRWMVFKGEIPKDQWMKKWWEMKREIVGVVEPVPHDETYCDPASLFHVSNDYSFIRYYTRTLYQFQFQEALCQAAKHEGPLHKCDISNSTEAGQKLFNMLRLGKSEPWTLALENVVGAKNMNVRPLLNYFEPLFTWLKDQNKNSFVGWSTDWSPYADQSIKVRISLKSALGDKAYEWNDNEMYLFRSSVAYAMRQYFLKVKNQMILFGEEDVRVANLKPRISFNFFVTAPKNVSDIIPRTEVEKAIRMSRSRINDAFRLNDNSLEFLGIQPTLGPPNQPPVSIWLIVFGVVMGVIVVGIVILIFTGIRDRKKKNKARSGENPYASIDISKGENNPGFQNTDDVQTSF

On to `Nc1ccccc1-c1nc(-c2ccc(C(F)(F)F)cc2)no1`, for which, in the data set with WI-38, the CC50 came to 5.78 µM and the EC100 amounted to 1.156 µM. For the same molecule, in the data set with A549, the EC100 came to 0.373 µM and the CC50 stood at 2.37 µM. Besides, the inhibition in [1] is 5%.

As to `CCOC(=O)CN1C(=O)COc2ccccc2-c2nc(no2)-c2ccccc21`, the results for the CC50 in the data set with WI-38 and with A549 were 31.6 µM and 14.2 µM, respectively. In addition, the EC100 turned out to be 6.313 µM in the data set with WI-38 and 7.127 µM in the data set on A549. The inhibition worked out at 18.1% in data set [1] and 15.6% in data set [2].

In the case of `Cc1ncc(COP(=O)([O-])O)c(/C=N/c2ccccc2-c2noc(-c3ccccc3)n2)c1O.[Na+]`, the CC50 amounted to 10.1 µM with WI-38 and 6.46 µM in the data set with A549. For the same molecule, the EC100 was 2.03 µM with WI-38 and 0.655 µM in the data set with A549. The inhibition in [1] worked out at 22.5%; in data set [2] it was 36.7%.

With `O=C(O)CN1C(=O)COc2ccccc2-c2nc(no2)-c2ccccc21`, the CC50 stood at 23.8 µM in the data set with WI-38 and 19.6 µM in the data set on A549. Further, the EC100 in the data set with WI-38 came out at 5.727 µM; in the data set with A549, 3.695 µM. Moreover, the figures for the inhibition in data set [1] and in [2] were 5.9% and 10.6%, respectively.

Regarding `CCN(CCO)CCCC(C)Nc1ccnc2cc(Cl)ccc12` (configuration not stated) [HYDROXYCHLOROQUINE], the IC50 with SARS-CoV-2 amounted to 0.72 µM.

Consider `Nc1ccccc1-c1noc(-c2ccccc2)n1`, for which the CC50 at 72 h in data set [3] came to 36.5 µM. In addition, the figures for the EC100 in the data set on WI-38 and in the data set with A549 were 7.299 µM and 5.886 µM, respectively. In addition, the CC50 in the data set on A549 came to 28.7 µM. The inhibition in [1] amounted to 20.8%; in data set [2], 23.3%.

With `Nc1ccccc1-c1noc(-c2ccccc2N)n1`, the figures for the CC50 in the data set on WI-38 and with A549 were 48.7 µM and 29 µM, respectively. For the same molecule, the EC100 worked out at 9.738 µM in the data set on WI-38 and 12.25 µM with A549. The inhibition worked out at 16.2% in data set [1] and 26.1% in data set [2].

`O=CNc1ccccc1-c1noc(-c2ccccc2O)n1`: the figures for the CC50 in the data set on WI-38 and in the data set with A549 were 40.6 µM and 31.4 µM, respectively. The values for the EC100 with WI-38 and in the data set on A549 were 8.116 µM and 15.708 µM, respectively. Moreover, the inhibition was 35.1% in data set [1] and 44.3% in [2].

Consider `Nc1ccccc1-c1noc(-c2ccccc2O)n1`, for which the CC50 with WI-38 was found to be 32.4 µM; with A549, 22 µM. Further, the EC100 came out at 6.474 µM in the data set on WI-38 and 4.114 µM in the data set with A549. Moreover, the inhibition in data set [1] was determined as 13.6%; in [2] it was 18.1%.

Consider `[N-]=[N+]=Nc1ccccc1-c1noc(-c2ccccc2O)n1`, for which the CC50 turned out to be 38.5 µM with WI-38 and 28.2 µM with A549. For the same molecule, the EC100 in the data set on WI-38 is 7.701 µM; in the data set with A549, 6.707 µM. Besides, the inhibition in data set [1] was determined as 1.1%.

With `Cc1ncc(COP(=O)([O-])O)c(/C=N/c2ccccc2-c2noc(-c3ccccc3O)n2)c1O.[Na+]`, the CC50 stood at 3.21 µM in the data set with WI-38 and 1.03 µM in the data set with A549. For the same molecule, the figures for the EC100 in the data set with WI-38 and in the data set with A549 were 4.956 µM and 2.718 µM, respectively. The values for the inhibition in [1] and in [2] were 13.9% and 26.1%, respectively.

With `CCN(CC)CCCC(C)Nc1ccnc2cc(Cl)ccc12` (configuration not stated) [CHLOROQUINE], in the data set on SARS-CoV-2, the IC50 was 1.13 µM.

As to `Nc1ccccc1-c1nc(-c2ccccc2)no1`, the values for the CC50 in the data set on WI-38 and with A549 were 57.2 µM and 24.7 µM, respectively. The EC100 came to 19.059 µM in the data set on WI-38 and 11.681 µM in the data set on A549. In addition, the inhibition in data set [1] turned out to be 21.1%; in data set [2], 31.4%.

Turning to `Oc1ccccc1-c1noc(-c2ccccc2O)n1`, in the data set with WI-38, the CC50 worked out at 26 µM and the EC100 came out at 5.208 µM. In the data set on A549, the EC100 was 3.36 µM and the CC50 stood at 19.5 µM. Also, the inhibition in data set [1] was 11.7%.

As for `CC(=O)Oc1ccccc1-c1nc(-c2ccccc2N(C(C)=O)C(C)=O)no1`, the EC100 with WI-38 turned out to be 0.641 µM; in the data set with A549, 0.207 µM. Also, in the data set on A549, the CC50 was determined as 20.5 µM. Besides, the inhibition in [1] is 17.1%; in data set [2], 44.4%.

Take `Nc1ccccc1-c1noc(-c2ccncc2)n1`: the CC50 with WI-38 worked out at 51.8 µM; with A549, 45.8 µM. In addition, the EC100 with WI-38 worked out at 10.356 µM; in the data set with A549 it was 8.352 µM. In addition, the IC50 in data set [4] (read-out: IC50) was 7.2 µM; in [4] (read-out: pIC50 (converted)), 7.21 µM; in data set [5] (read-out: IC50) it was 8.67 µM; in data set [5] (read-out: pIC50 (converted)), 8.69 µM. Further, the values for the inhibition in data set [1] and in data set [2] were 58.6% and 65.6%, respectively. Moreover, in data set [6], the logP stood at 3.8.

Values taken from ChEMBL document CHEMBL5346937, “Repurposing 1,2,4-oxadiazoles as SARS-CoV-2 PLpro inhibitors and investigation of their possible viral entry blockade potential” (Eur J Med Chem, 2023).
